Results as given in publication PMC8384680 (Journal of pharmaceutical and biomedical analysis, 2021).
In brackets after ≈: the same amount, converted by molar mass.

Legend:
[1] = system: BRD4(1); details: cell-free assays, ref [10], cited from earlier work
[2] = Stability of JQ1 in microdialysate; type: physicochemical
[3] = system: BRD4(2); details: cell-free assays, ref [10], cited from earlier work
[4] = Stability of primary stock solution; type: physicochemical; details: stored at −80°C for 88-days, R.S.D ≤ 1.16%

For `Cc1sc2c(c1C)C(c1ccc(Cl)cc1)=N[C@@H](CC(=O)OC(C)(C)C)c1nnc(C)n1-2` [JQ1], the “IC50 BRD4(1)” value [1] is given as 0.0352 µg/mL (≈ 0.077 µM), the IC50 ([1]; read-out: IC50 BRD4(1)) is given as 77 nM and the “% Mean deviation” value ([2]; Bench-top 4C: 24h at 4°C, nominal 1.5 ng/mL) is given as 5.96%. For the same molecule, the “% Mean deviation” value ([2]; Bench-top RT: 24h at room temperature, nominal 1.5 ng/mL) was 3.23%, the “% Mean deviation” value ([2]; Bench-top RT: 24h at room temperature, nominal 400 ng/mL) was 5.26% and the “% Mean deviation” value ([2]; Long-term: 21 days at −80°C, nominal 1.5 ng/mL) was 12.83%. For the same molecule, the “% Mean deviation” value ([2]; Long-term: 21 days at −80°C, nominal 400 ng/mL) was 5.62%, the “% Mean deviation” value ([2]; Process: 48 h in auto sampler at 4°C, nominal 1.5 ng/mL) was 0.46% and the “% Mean deviation” value ([2]; Process: 48 h in auto sampler at 4°C, nominal 400 ng/mL) was 1.39%. The “Autosampler (post-extractive) stability (in words)” value ([2]; extracted quality control samples, microdialysate, autosampler 48 h) was “stable”, the “Freeze-thaw stability (in words)” value ([2]; microdialysate, three freeze-thaw cycles) was “no-stability related issues” and the “Short-term stability (in words)” value ([2]; spiked microdialysate, 24 h at 4°C and room temperature) was “stable”. For the same molecule, the “Long-term stability (in words)” value ([2]; spiked microdialysate, −80°C for 21 days) was “confirmed”, the “% Mean deviation” value ([2]; three freeze-thaw cycles, nominal 1.5 ng/mL) was 11.77% and the “IC50 BRD4(2)” value [3] was 0.0151 µg/mL (≈ 0.033 µM). For the same molecule, the IC50 ([3]; read-out: IC50 BRD4(2)) was 33 nM and the “Stability of primary stock solution (in words)” value [4] was “stable”.
